US20260021132A1, “PHARMACOLOGICAL THERAPY FOR MITOCHONDRIAL DNA DEPLETION DELETIONS SYNDROME INVOLVING MUTATIONS IN THE GUK1 GENE” (The Trustees of Columbia University in the City of New York, priority 2023, published 2026)

Experiments:
[1] = tested on: GUK1 patient fibroblasts; assay: mtDNA content of proliferating GUK1 patient fibroblasts (quantitative Real-Time PCR, mtDNA/nDNA); type: cell-based, human; conditions: three different GUK1 patient proliferating fibroblasts, FIG. 3B
Description: Levels of mtDNA were measured by quantitative Real-Time PCR (in triplicate) and expressed as mtDNA/nDNA (12S/RNase P) and levels are expressed as percent relative to control fibroblast mtDNA. * indicates p<0.05. P values determined by Mann-Whitney U test. Initially, GUK1 mutant patient fibroblasts will be supplemented with dG. Based on published reports of deoxynucleoside supplementation for rescue of other models of mtDNA depletion, fibroblast culture media will be supplemented with dG at concentrations ranging from 1 μM to 400 μM (Camara, et al. 2014; Pontarin, et al. 2012; […], et al. 2003; Bulst, et al. 2012). Throughout each experiment, fibroblasts will be actively proliferating to emphasize use of the de novo dNTP synthesis pathway. The primary outcome measure will be mtDNA copy number comparing untreated and dG-supplemented fibroblasts. To complement the mtDNA results, it will be determined whether the mitochondrial dGTP concentration increases with dG supplementation by measuring mitochondrial dNTP pools. As a functional measure of mitochondrial rescue in treated fibroblasts, we will also measure OxPhos activity.

[2] = tested on: dGK-deficient fibroblasts; conditions: cited from earlier work
[3] = mice; cited from earlier work

Nc1nc2c(ncn2[C@H]2C[C@H](O)[C@@H](CO)O2)c(=O)[nH]1 [dG, deoxyguanosine]
mtDNA as compared to untreated ([1]; dG at 1 μM alone): increase

O=c1[nH]cnc2c([C@@H]3N[C@H](CO)[C@@H](O)[C@H]3O)c[nH]c12 [forodesine]
mtDNA as compared to untreated ([1]; forodesine at 1 mM alone): increase
efficacy of purine supplementation [2]: enhances the efficacy of purine supplementation
circulating dG [3]: can increase circulating dG
